Measured values from PMC12699035, “Exploring market-approved azoles as potential breast cancer therapeutics targeting the VEGFR-2 biotarget” (Scientific Reports, 2025).
Where two headings read alike, the source gives them in different places.

Tests used:
MCF-7 cells = assay: Cytotoxicity against MCF-7 cells, MTT assay (single dose and five doses); details: for Average OD / OD1 / OD2 / OD3: MCF-7, single dose 100 μg/mL, MTT optical density; for Average OD: average of triplicates; for OD1: replicate 1; for OD2: replicate 2; for OD3: replicate 3
MCF-10A cells = assay: Cytotoxicity against MCF-10A cells, MTT assay (five doses); format: cell-based; details: Homo sapiens, MCF-10A normal cells, five dose concentrations, n = 3, read-out: MCF-10A IC50 ± SD
VEGFR-2 = target: T1, VEGFR-2 (Homo sapiens, UniProt P35968); assay: VEGFR-2 kinase inhibition, luminescent VEGFR2 (KDR) kinase assay kit (BPS Bioscience # 40325); format: biochemical; details: for VEGFR-2 enzyme inhibition LogIC50 (Fig. 3): unit not given
T1 construct: purchased BPS Bioscience 40325
Experimental: Functionally, this pathway operates in autocrine and intracrine modes to promote cell proliferation, survival, and resistance to apoptosis through downstream effectors such as PI3K/AKT and p38 MAPK.
(§1) SIT, FLU and TNZ were tested using the five dose sigmoidal curves to determine the IC50 values. […] At the end of these experiment, anti-tumor potentiality was recorded using tumor weight (mg), tumor volume (mm^3), and the tumor inhibition ratio (TIR%). Hematological parameters of Hemoglobin (Hb, g/dL), RBC’s count (10^6/μL), and WBC’s count (10^3/μL) were investigated, along with histopathological and immunohistochemical staining of the VEGR2 protein.
Compounds Itraconazole. […] [12].

VEGF = assay: Immunohistochemical staining of VEGF in SEC tumor sections; format: in vivo, mice; details: IHC of SEC tumor
From the text: VEGF has been considered a biomarker for VEGFR-2 bioactivity, as it binds to and activates this kinase receptor, playing a crucial role in angiogenesis. High VEGF levels are often associated with increased VEGFR-2 expression and activity, making VEGF a marker for VEGFR-2's function and tumor growth. […] The staining intensity is strong (+ 3), with dark brown cytoplasmic staining in most tumor cells. The immunoreactive score (IRS), calculated by multiplying the staining intensity score and the percentage of positive cells, is 9–12, indicating a high level of VEGF expression. This intense VEGF expression correlates with the presence of numerous irregular and dilated blood vessels in the tumor microenvironment.
The paraffin-infiltrated tissue was sliced into thin sections (4-6 μm) using a microtome and floated in a water bath. The sections were then mounted onto charged slides and left to dry overnight. The use of charged slides ensures the sections adhere properly to the slide. To carry out antibody staining, the paraffin wax was removed from the sample, and the tissue was rehydrated. The paraffin was eliminated by placing the tissue sections in three containers of xylene for 5 minutes each. Rehydration began by immersing the sections in two containers of 100% ethanol for 10 minutes each, followed by two containers of 95% ethanol for 10 minutes each. Finally, to complete the rehydration, the sections were washed twice in deionized water for 5 minutes each.
For antigen retrieval, the slides are heated in 10 mM Tris/1 mM EDTA, pH 9.0, kept at a sub-boiling temperature for 18 minutes, and then allowed to cool at room temperature for 30 minutes. For chromogenic staining detection, the sections are rinsed in deionized water three times for 5 minutes each, and then the endogenous peroxidase activity in the tissue sections is quenched to prevent high background staining by incubating the sections in 3% hydrogen peroxide for 10 minutes. Afterward, the sections are washed twice in deionized water for 5 minutes each, followed by a single wash in wash buffer for 5 minutes. A hydrophobic pen is used to carefully draw a large circle around the sample, ensuring it doesn’t touch the sample, creating a hydrophobic boundary to achieve optimal antibody staining quality. To prevent non-specific antibodies from binding to the tissue, each section is blocked with 100–400 µl of blocking solution for 1 hour at room temperature in a humidified chamber. The blocking solution was discarded, and 100–400 µl of diluted primary antibody was applied. […]
The slides were incubated overnight at 4°C in a humidified chamber. […] Then, 100–400 µl of Signal Stain DAB was applied to each section and monitored closely for 1–10 minutes until an acceptable staining intensity was achieved. […]

[1] = tested on: Solid Ehrlich Carcinoma (SEC); assay: In vivo anti-tumor activity in solid Ehrlich carcinoma (SEC)-bearing mice (tumor mass, volume, TIR%, hematology, histopathology)
Experimental: All experimental protocols were approved by the Research Ethics Committee and Institutional Animal Care and Use Committee, Faculty of Science, Suez Canal University with the ethical code (SCU-Sci-REC439/2025), and all methods were carried out according to the European Union guidelines and in accordance with ARRIVE guidelines. All animals were anesthetized using a combination of Xylazine 10 mg/kg- Ketamine 100 mg/kg of body weight, respectively, prior sacrifice via cervical decapitation.
In all graphs, treatments were administrated intraperitoneal (IP) with 6 mg/Kg B.Wt. for two weeks, day after day.
as §1, with “values. They were tested for the VEGFR2 inhibition using VEGFR2 Kinase Inhibition Assay Kit Catalog # 40325 BPS Bioscience, San Diego, CA.” for “values.”
Adult female Swiss albino mice purchased from Faculty of Pharmacy, Suez Canal University, Ismailia, Egypt, with an average body weight of (18-23) g was used. Mice were housed under constant conditions of 12 h light/dark cycle in a […], with free access to standard laboratory mice food and water. All procedures related to care and maintenance of the animals were performed according to the international guiding principles for animal research and approved by the Faculty of Pharmacy, Suez Canal University bioethics and animal ethics committee.
Solid Ehrlich carcinoma (SEC) was got from the National Cancer Institute (Cairo University, Egypt). The tumor cell line proliferated in mice through serial intraperitoneal (I.P.) transplantation of a volume of 0.2 mL physiological saline containing 1×10^6 viable cells for 24 h. SEC cells were collected 7 days after I.P. implantation. The harvested cells were diluted with saline to obtain a concentration of 5×10^6 viable SEC cells/mL. A volume of 0.2 mL saline contains 1×10^6 SEC cells that were I.P. implanted into each normal mouse. SEC cells (1×10^6 tumor cells/mouse) were implanted subcutaneously into the right thigh of the hind limb.
The experimental animals were randomly divided into four groups. Group 1 served as the normal saline control. Group 2 served as the SEC control (1×10^6 cells/mouse). Group 3 served as the ITR-treated group (6 mg/kg B.Wt., I.P.). […] Body weight and survival were recorded daily until the 24th day in both treated and control groups. At the end of the experiment, anesthetized animals were then sacrificed for evaluation of the antitumor activity and histopathological examination.
It includes tumor volume, weight, and tumor inhibition ratio (TIR%). Time interval measurements of tumor volume using a digital Vernier caliper (Tricle Brand, Shanghai, China). Measure tumor length and width using a clipper and then calculate tumor volume using formulations V = (L x W x W)/2, where V is tumor volume, W is tumor width, L is tumor length. While TIR% was calculated according to the following equation Tumor volume Control-Tumor volume (treated)Tumor volume (control)x 100.
Specimens of liver-sacrificed mice were fixed in 10% saline formalin. The fixed liver specimens were Dehydrated in ascending series of ethyl alcohol and embedded in paraffin.

[2] = Homo sapiens, MCF7, read-out: Average viability%
[3] = Homo sapiens, MCF7, read-out: MCF-7 IC50 ± SD, MCF-7, five dose concentrations, MTT, n = 3
[4] = Homo sapiens, MCF7, read-out: Viability (%) 1
[5] = Homo sapiens, MCF7, read-out: Viability (%) 2
[6] = Homo sapiens, MCF7, read-out: Viability (%) 3
[7] = enzyme inhibition, dose-response, non-linear regression, read-out: VEGFR-2 inhibition IC50

T1 sequence (P35968 20-1356): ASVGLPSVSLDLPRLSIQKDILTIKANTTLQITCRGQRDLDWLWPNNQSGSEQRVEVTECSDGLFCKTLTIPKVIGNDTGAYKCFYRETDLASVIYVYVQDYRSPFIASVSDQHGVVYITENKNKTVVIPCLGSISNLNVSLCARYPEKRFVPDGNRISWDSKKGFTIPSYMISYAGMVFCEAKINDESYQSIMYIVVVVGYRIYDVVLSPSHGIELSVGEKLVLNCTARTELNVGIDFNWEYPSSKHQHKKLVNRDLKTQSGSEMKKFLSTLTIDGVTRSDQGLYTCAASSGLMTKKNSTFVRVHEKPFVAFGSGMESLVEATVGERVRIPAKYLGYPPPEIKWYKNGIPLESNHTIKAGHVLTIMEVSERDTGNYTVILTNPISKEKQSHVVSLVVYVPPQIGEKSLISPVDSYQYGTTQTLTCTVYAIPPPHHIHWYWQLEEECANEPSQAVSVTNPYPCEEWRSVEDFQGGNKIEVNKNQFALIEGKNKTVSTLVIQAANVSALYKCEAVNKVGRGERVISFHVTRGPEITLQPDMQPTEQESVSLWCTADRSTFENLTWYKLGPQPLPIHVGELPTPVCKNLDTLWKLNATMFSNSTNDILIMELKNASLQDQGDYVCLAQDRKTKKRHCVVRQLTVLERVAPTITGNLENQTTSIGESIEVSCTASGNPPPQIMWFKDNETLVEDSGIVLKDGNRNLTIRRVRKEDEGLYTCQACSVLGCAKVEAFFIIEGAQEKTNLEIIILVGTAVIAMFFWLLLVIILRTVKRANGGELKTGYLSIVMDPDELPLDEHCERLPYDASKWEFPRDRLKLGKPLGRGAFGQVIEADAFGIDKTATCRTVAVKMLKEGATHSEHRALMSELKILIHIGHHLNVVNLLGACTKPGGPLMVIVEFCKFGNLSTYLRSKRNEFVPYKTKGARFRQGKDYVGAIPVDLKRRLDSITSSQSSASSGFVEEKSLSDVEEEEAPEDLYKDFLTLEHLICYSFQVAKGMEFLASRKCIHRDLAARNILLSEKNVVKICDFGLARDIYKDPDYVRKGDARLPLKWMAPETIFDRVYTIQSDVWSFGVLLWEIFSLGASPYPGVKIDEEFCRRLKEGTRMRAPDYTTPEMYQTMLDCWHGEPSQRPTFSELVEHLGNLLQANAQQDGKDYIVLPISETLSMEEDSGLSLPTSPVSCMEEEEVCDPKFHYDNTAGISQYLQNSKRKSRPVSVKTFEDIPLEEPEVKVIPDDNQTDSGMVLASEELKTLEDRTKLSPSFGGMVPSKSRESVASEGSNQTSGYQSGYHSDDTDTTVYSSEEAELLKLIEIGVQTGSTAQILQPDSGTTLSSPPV

Compound	viability at 100 µg/mL (MCF-7 cells; [2])	IC50 (MCF-7 cells; [3])	viability at 100 µg/mL (MCF-7 cells; [4])	viability at 100 µg/mL (MCF-7 cells; [5])	viability at 100 µg/mL (MCF-7 cells; [6])	Average OD (MCF-7 cells)	OD1 (MCF-7 cells)	OD2 (MCF-7 cells)	OD3 (MCF-7 cells)	IC50 (MCF-10A cells)	VEGFR-2 enzyme inhibition LogIC50 (Fig. 3) (VEGFR-2; dose-response curve fit)	also measured
COc1cccc2c1C(=O)c1c(O)c3c(c(O)c1C2=O)C[C@@](O)(C(=O)CO)C[C@@H]3O[C@H]1C[C@H](N)[C@H](O)[C@H](C)O1 [DOX, doxorubicin]	46.2%	3.91 ± 0.6 µM	41.9%	42.9%	53.6%	1.49	1.35	1.38	1.73	38.9 ± 1.1 µM		
O=C1CN(/N=C/c2ccc(-c3ccc([N+](=O)[O-])cc3)o2)C(O)=N1 [Dantrolene, dantrolene]	70%		72%	65.7%	72.5%	2.26	2.32	2.12	2.34			
OC(Cn1cncn1)(Cn1cncn1)c1ccc(F)cc1F [Fluconazole, fluconazole]	64.3%	260 µM	62.7%	67.3%	62.9%	2.07	2.02	2.17	2.03	32.3 ± 1.77 µM	2.535	IC50 (VEGFR-2; [7]): 343000 nM; IC50 (MCF-7 cells; read-out: MCF-7 IC50 ± SD, MCF-7, five dose concentrations, MTT, n = 3, listed as FLU): 261 ± 6.8 µM
CCCCc1nc(Cl)c(CO)n1Cc1ccc(-c2ccccc2-c2nn[nH]n2)cc1 [Losartan, losartan]	71%		71.4%	69.1%	72.3%	2.29	2.30	2.23	2.33			
Clc1ccc(COC(Cn2ccnc2)c2ccc(Cl)cc2Cl)c(Cl)c1 (stereo not shown) [Miconazole, miconazole]	76%		77%	76%	75%	2.45	2.48	2.45	2.42			
N[C@@H](CC(=O)N1CCn2c(nnc2C(F)(F)F)C1)Cc1cc(F)c(F)cc1F [Sitagliptin, sitagliptin]	64.6%	183 µM	65.7%	64.4%	63.8%	2.08	2.12	2.08	2.06	37.6 ± 1.9 µM	2.016	IC50 (VEGFR-2; [7]): 104000 nM; IC50 (MCF-7 cells; read-out: MCF-7 IC50 ± SD, MCF-7, five dose concentrations, MTT, n = 3, listed as SIT): 183 ± 3.1 µM
CNC(=O)c1cc(Oc2ccc(NC(=O)Nc3ccc(Cl)c(C(F)(F)F)c3)cc2)ccn1 [Sorafenib]												immunoreactive score (IRS) (VEGF; scale 0-12, SEC control 9–12): 1–2; percentage of VEGF-positive tumor cells (VEGF; SEC control 80–90%): 10–30%; solid tumor mass ([1]; 6 mg/Kg B.Wt. IP, two weeks, day after day, SEC control 469 mg): 229 mg; tumor volume ([1]; 6 mg/Kg B.Wt. IP, two weeks, day after day, SEC control 420 mm^3): 214 mm^3; WBC's count ([1]; 6 mg/Kg IP, normal 5, SEC control 9.2): 6.6 10^3/µL; RBC's count ([1]; 6 mg/Kg IP, normal 6.9, SEC control 3.1): 4.9 10^6/µL; Hemoglobin level ([1]; 6 mg/Kg IP, normal 11.6, SEC control 4.6): 6.9 g/dL; Tumor cell density (histopathology of SEC mass) ([1]; isolated tumor mass, SEC control 2.2 cm^2): 0.5 cm^2
CCS(=O)(=O)CCn1c([N+](=O)[O-])cnc1C [Tinidazole, tinidazole]	67.5%	301 µM	68.2%	66.2%	68%	2.16	2.20	2.14	2.19	51.5 ± 1.8 µM	1.913	IC50 (VEGFR-2; dose-response curve fit, unit inferred, read-out: VEGFR-2 enzyme inhibition IC50 (Fig. 3)): 81900 nM; IC50 (VEGFR-2; enzyme inhibition, unit printed as nM in text, read-out: VEGFR-2 inhibition IC50): 81900 nM; IC50 (MCF-7 cells; read-out: MCF-7 IC50 ± SD, MCF-7, five dose concentrations, MTT, n = 3, listed as TNZ): 301 ± 7.6 µM
